# Literature values in paper PMC6044787 (ACS Omega, 2017).
# Tested on: AChE
smiles,measurement,value
"C[n+]1ccc2c(c1)[nH]c1ccc(Cl)cc12 [Compound 8, nostocarboline]",IC50,5.3 µM
